Experimental data: patent US10350271B2, “Lipidated peptides for lowering blood glucose” (USTAV ORGANICKE CHEMIE A BIOCHEMIE AKADEMIE VED CR, V.V.I., priority 2014, dated 2019)
Square brackets hold non-standard residues; d marks the D form. Ends that are not written are not given here. Peptide text beside a SMILES is read from it. * marks the point of attachment. Myristoyl = CCCCCCCCCCCCCC(=O)*; Nle = CCCC[C@H](N)C(=O)O

Columns and labels:
rat PrRP receptor = molecular target: T1, rat PrRP receptor (Rattus norvegicus, UniProt Q64121); assay: Competitive binding in RC-4B/C rat pituitary cells (125I-rat PrRP31); settings: for Binding affinity: RC-4B/C cells, statements referring to Table 2; for % of PrRP31, RC-4B/C rat pituitary cells: affinity relative to PrRP31
T1 construct: host or cells: RC-4B/C rat pituitary cell line
T1 sequence (Q64121 1-370): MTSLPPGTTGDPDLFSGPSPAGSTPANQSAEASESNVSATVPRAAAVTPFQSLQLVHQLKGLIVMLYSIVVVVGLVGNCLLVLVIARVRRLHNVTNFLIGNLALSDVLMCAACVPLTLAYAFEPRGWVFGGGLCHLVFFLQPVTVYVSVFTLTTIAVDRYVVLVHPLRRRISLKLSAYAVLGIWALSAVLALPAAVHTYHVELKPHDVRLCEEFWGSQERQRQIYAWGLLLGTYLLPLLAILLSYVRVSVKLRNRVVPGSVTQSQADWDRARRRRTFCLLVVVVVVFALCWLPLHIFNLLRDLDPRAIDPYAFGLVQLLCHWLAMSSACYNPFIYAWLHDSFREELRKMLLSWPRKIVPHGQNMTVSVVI
Summary of the method: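 Displacement of rat 125I-PrRP31 ([…]) by test analogs, 10^−11–10^−4 mol·l^−1, on whole RC-4B/C cells, 60 min RT. Bound counts measured by γ-counter in duplicate, ≥3 repeats, analyzed by nonlinear one-site binding regression.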

C57BL/6 mice = assay: Food intake in fasted mice after SC injection; format: in vivo; settings: for Effect on food intake in mice: SC
Description: NMRI mice, C57BL/6 mice, and Wistar rats (AnLab, Prague, Czech Republic) were housed in a temperature of 23° C. and a daily cycle of 12 h light and dark (light from 6:00). They were given ad libitum water and a standard chow diet that contained 25, 9 and 66% of calories of protein, fat and carbohydrate respectively. Energy content of the feed was 3.4 kcal/g (St-1, Mlýn Kocanda, Czech Republic). Db/db mice and their controls (C57BL/6 background) were obtained from Taconic (Denmark), housed under the same conditions as described above, and fed by Altromin (Taconic, Denmark). ZDF-Lepr^fa/Crl, diabetic fa/fa male rats were obtained from Charles River (France), housed under same conditions as described above, and fed with a Purina 5008 diet (IPS Product Supplies Limited, UK). All experiments followed the ethical guidelines for animal experiments and the law of the Czech Republic Nr. 246/1992.
In experiments with C57BL/6 mice or Wistar rats, food intake was measured with overnight fasted animals in individual cages. Food was withdrawn 17 hours prior to injection of lipidated analog of prolactin releasing peptide (PrRP); free access to water was maintained. The administration of either saline, PrRP, or lipidated analogs was performed by SC injection at doses of 1-10 mg/kg (which corresponded to a volume of 0.2 ml/mouse and 0.1 ml/100 g weight of rat). Fifteen minutes after the lipidated analog of prolactin releasing peptide (PrRP) administration, the mice were given pre-weighed food. The food was then weighed every 30 minutes for 5-10 hours. The administration of each dose was performed at least twice, and each group of mice consisted of at least 6 mice.

[1] = molecular target: T2, human PrRP receptor GPR10 (Homo sapiens, UniProt P49683); assay: Competitive binding in CHO cells transfected with human GPR10 (human 125I-PrRP31); settings: affinity relative to PrRP31
T2 construct: host or cells: CHO cells
T2 sequence (P49683 1-370): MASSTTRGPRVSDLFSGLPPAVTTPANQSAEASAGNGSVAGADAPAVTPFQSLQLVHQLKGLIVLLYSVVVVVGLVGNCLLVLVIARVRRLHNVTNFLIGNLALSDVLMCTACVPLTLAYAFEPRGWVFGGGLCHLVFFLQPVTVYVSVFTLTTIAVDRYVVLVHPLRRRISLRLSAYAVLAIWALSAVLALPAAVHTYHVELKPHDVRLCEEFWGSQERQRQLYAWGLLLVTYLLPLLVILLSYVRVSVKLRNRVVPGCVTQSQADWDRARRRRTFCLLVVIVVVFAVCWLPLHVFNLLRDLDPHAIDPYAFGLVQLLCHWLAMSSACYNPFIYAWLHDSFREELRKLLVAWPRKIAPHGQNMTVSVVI
Summary of the method: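 Values from one-site nonlinear regression of displacement curves: analogs (final 10^-11 to 10^-4 mol·l^-1) competed with 125I-PrRP31 (final 5×10^-11 mol·l^-1) on adherent human GPR10 CHO cells. Binding ran 1 h at room temperature, pH 7.4 buffer with NaCl, MgCl2, CaCl2, glucose, BSA; cell-bound radioactivity counted after NaOH lysis.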

Row | Compound | Binding affinity (rat PrRP receptor) | % of PrRP31, RC-4B/C rat pituitary cells (rat PrRP receptor) | % of PrRP31, GPR10 human receptor transfected in CHO cells [1] | Effect on food intake in mice (C57BL/6 mice) | Food intake in mice % of saline-treated group (C57BL/6 mice; 5 mg/kg SC, 45 min after injection)
1 | CCCC[C@H](NC(=O)CNC(=O)[C@H](CCCNC(=N)N)NC(=O)[C@@H]1CCCN1C(=O)[C@H](Cc1ccc(O)cc1)NC(=O)[C@H](Cc1c[nH]c2ccccc12)NC(=O)[C@H](Cc1c[nH]cn1)NC(=O)[C@@H](NC(=O)[C@H](CC(=O)O)NC(=O)[C@H](C)NC(=O)[C@@H]1CCCN1C(=O)[C@H](CCCNC(=N)N)NC(=O)[C@H](CCC(N)=O)NC(=O)[C@H](Cc1c[nH]cn1)NC(=O)[C@@H](N)CO)[C@@H](C)O)C(=O)N[C@@H](Cc1ccccc1)C(=O)N1CCC[C@H]1C(=O)N[C@H](C(=O)N[C@H](C(=O)NCC(=O)N[C@@H](CCCNC(=N)N)C(=O)N[C@H](C(=O)N[C@H](C(=O)N[C@@H](C)C(=O)N[C@@H](CCCNC(=N)N)C(=O)N[C@@H](CC(N)=O)C(=O)NCC(=O)N[C@@H](CCC(=O)O)C(=O)N[C@H](C(=O)N[C@@H](CO)C(=O)N[C@@H](CCCNC(=N)N)C(N)=O)C(C)C)[C@@H](C)O)[C@@H](C)CC)[C@@H](C)CC)[C@@H](C)O [Analog 19] (H-SHQRPADTHWYPRG[Nle]FPTIGRITARNGEVSR-NH2) | very low binding affinity | – | – | no effect | –
2 | CCCCCCCCCCCCCC(=O)N[C@@H](CO)C(=O)N[C@@H](Cc1c[nH]cn1)C(=O)N[C@@H](CCC(N)=O)C(=O)N[C@@H](CCCNC(=N)N)C(=O)N1CCC[C@H]1C(=O)N[C@@H](C)C(=O)N[C@@H](CC(=O)O)C(=O)N[C@H](C(=O)N[C@@H](Cc1c[nH]cn1)C(=O)N[C@@H](Cc1c[nH]c2ccccc12)C(=O)N[C@@H](Cc1ccc(O)cc1)C(=O)N1CCC[C@H]1C(=O)N[C@@H](CCCNC(=N)N)C(=O)NCC(=O)N[C@@H](CCCC)C(=O)N[C@@H](Cc1ccccc1)C(=O)N1CCC[C@H]1C(=O)N[C@H](C(=O)N[C@H](C(=O)NCC(=O)N[C@@H](CCCNC(=N)N)C(=O)N[C@H](C(=O)N[C@H](C(=O)N[C@@H](C)C(=O)N[C@@H](CCCNC(=N)N)C(=O)N[C@@H](CC(N)=O)C(=O)NCC(=O)N[C@@H](CCC(=O)O)C(=O)N[C@H](C(=O)N[C@@H](CO)C(=O)N[C@@H](CCCNC(=N)N)C(N)=O)C(C)C)[C@@H](C)O)[C@@H](C)CC)[C@@H](C)CC)[C@@H](C)O)[C@@H](C)O [Analog 20] (Myristoyl-SHQRPADTHWYPRG[Nle]FPTIGRITARNGEVSR-NH2) | very low binding affinity | – | – | no effect | –
3 | CCCCCCCCCCCCCC(=O)N[C@H](Cc1ccccc1)C(=O)N[C@H](CCCNC(=N)N)C(=O)NCC(=O)N[C@H](C(=O)N1CCC[C@H]1C(=O)N[C@@H](CCCNC(=N)N)C(=O)N[C@H](C(=O)NCC(=O)N[C@@H](CCCNC(=N)N)C(=O)NCC(=O)N[C@H](C(=O)N[C@@H](Cc1ccc(O)cc1)C(=O)N[C@@H](Cc1c[nH]c2ccccc12)C(=O)N[C@@H](C)C(=O)N1CCC[C@H]1C(=O)N[C@@H](CC(N)=O)C(=O)N[C@H](C(=O)N[C@@H](CC(=O)O)C(=O)N1CCC[C@H]1C(=O)N[C@H](C(N)=O)[C@@H](C)O)[C@@H](C)CC)[C@@H](C)O)[C@@H](C)CC)C(C)C [Analog 26] (Myristoyl-[dF][dR]GVPRIGRGTYWAPNIDPT-NH2) | very low binding affinity | 1.4% | – | no effect | 100%
4 | TPDINPAWYTGRGARPFGRF-NH2 [Analog 31] | – | 0.8% | 0.7% | – | –

Continued, in another order:

Row | Binding affinity (rat PrRP receptor) | % of PrRP31, RC-4B/C rat pituitary cells (rat PrRP receptor) | % of PrRP31, GPR10 human receptor transfected in CHO cells [1] | Compound | Effect on food intake in mice (C57BL/6 mice) | Food intake in mice % of saline-treated group (C57BL/6 mice; 5 mg/kg SC, 45 min after injection)
5 | – | 168% | 113% | CCCC[C@H](N)C(=O)N[C@@H](CCC(=O)O)C(=O)N[C@H](C(=O)N[C@@H](CCCNC(=N)N)C(=O)N[C@H](C(=O)N1CCC[C@H]1C(=O)N[C@@H](CC(=O)O)C(=O)N[C@H](C(=O)N[C@@H](CC(N)=O)C(=O)N1CCC[C@H]1C(=O)N[C@@H](C)C(=O)N[C@@H](Cc1c[nH]c2ccccc12)C(=O)N[C@@H](Cc1ccc(O)cc1)C(=O)N[C@H](C(=O)NCC(=O)N[C@@H](CCCNC(=N)N)C(=O)NCC(=O)N[C@H](C(=O)N[C@@H](CCCNC(=N)N)C(=O)N1CCC[C@H]1C(=O)N[C@H](C(=O)NCC(=O)N[C@@H](CCCNC(=N)N)C(=O)N[C@@H](Cc1ccccc1)C(N)=O)C(C)C)[C@@H](C)CC)[C@@H](C)O)[C@@H](C)CC)[C@@H](C)O)[C@@H](C)O [Analog 35] (H-[Nle]ETRTPDINPAWYTGRGIRPVGRF-NH2) | – | –
6 | – | 1096% | 71% | CCCCCCCCCCCCCC(=O)N[C@@H](CCCC)C(=O)N[C@@H](CCC(=O)O)C(=O)N[C@H](C(=O)N[C@@H](CCCNC(=N)N)C(=O)N[C@H](C(=O)N1CCC[C@H]1C(=O)N[C@@H](CC(=O)O)C(=O)N[C@H](C(=O)N[C@@H](CC(N)=O)C(=O)N1CCC[C@H]1C(=O)N[C@@H](C)C(=O)N[C@@H](Cc1c[nH]c2ccccc12)C(=O)N[C@@H](Cc1ccc(O)cc1)C(=O)N[C@H](C(=O)NCC(=O)N[C@@H](CCCNC(=N)N)C(=O)NCC(=O)N[C@H](C(=O)N[C@@H](CCCNC(=N)N)C(=O)N1CCC[C@H]1C(=O)N[C@H](C(=O)NCC(=O)N[C@@H](CCCNC(=N)N)C(=O)N[C@@H](Cc1ccccc1)C(N)=O)C(C)C)[C@@H](C)CC)[C@@H](C)O)[C@@H](C)CC)[C@@H](C)O)[C@@H](C)O [Analog 36] (Myristoyl-[Nle]ETRTPDINPAWYTGRGIRPVGRF-NH2) | – | –
7 | – | 1332% | 56% | CCCCCCCCCCCCCC(=O)N[C@@H](CCC(N)=O)C(=O)N[C@@H](Cc1c[nH]cn1)C(=O)N[C@@H](CO)C(=O)N[C@@H](CCSC)C(=O)N[C@@H](CCC(=O)O)C(=O)N[C@H](C(=O)N[C@@H](CCCNC(=N)N)C(=O)N[C@H](C(=O)N1CCC[C@H]1C(=O)N[C@@H](CC(=O)O)C(=O)N[C@H](C(=O)N[C@@H](CC(N)=O)C(=O)N1CCC[C@H]1C(=O)N[C@@H](C)C(=O)N[C@@H](Cc1c[nH]c2ccccc12)C(=O)N[C@@H](Cc1ccc(O)cc1)C(=O)N[C@H](C(=O)NCC(=O)N[C@@H](CCCNC(=N)N)C(=O)NCC(=O)N[C@H](C(=O)N[C@@H](CCCNC(=N)N)C(=O)N1CCC[C@H]1C(=O)N[C@H](C(=O)NCC(=O)N[C@@H](CCCNC(=N)N)C(=O)N[C@@H](Cc1ccccc1)C(N)=O)C(C)C)[C@@H](C)CC)[C@@H](C)O)[C@@H](C)CC)[C@@H](C)O)[C@@H](C)O [Analog 38] (Myristoyl-QHSMETRTPDINPAWYTGRGIRPVGRF-NH2) | – | –
8 | – | 189% | 66% | QHSMETRTPDINPAWYTGRGIRPVGRF-NH2 [Analog 37] | – | –
9 | – | 230% | 225% | TPDINPAWYASRPFRPVGRF-NH2 [Analog 33] | – | –
